{"source": "BindingDB's records for doi:10.1021/jm900135r", "about": "(Washington University, 2009)", "target": "Caspase-8 (Homo sapiens, UniProt Q14790)", "sequence (Q14790 217-374 limits assumed)": "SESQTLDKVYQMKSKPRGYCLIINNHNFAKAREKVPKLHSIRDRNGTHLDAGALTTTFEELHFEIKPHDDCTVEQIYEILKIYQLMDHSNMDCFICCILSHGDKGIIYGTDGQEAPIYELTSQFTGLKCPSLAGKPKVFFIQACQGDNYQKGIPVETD", "sequence (Q14790 385-479 limits assumed)": "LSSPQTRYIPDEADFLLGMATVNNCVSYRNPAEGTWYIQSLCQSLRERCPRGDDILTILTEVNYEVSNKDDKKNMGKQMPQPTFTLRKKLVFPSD", "test": "Enzyme Inhibition Assay", "description": "The caspase enzymatic activity was determined by measuring the accumulation of a fluorogenic product. All assays were prepared in 96-well format. Recombinant caspase enzyme was first assayed to determine the optimal concentration for each experiment. Peptide inhibitors with known IC50 values were tested together with the compounds as a control for each caspase assay. […] Compounds were tested in duplicate and IC50 curves were calculated for all inhibitors assayed.", "note": "Where a SMILES comes first, the peptide text is derived from it. [ ]: non-standard residue; d: D form. ξ: configuration not given here. Ile(3ξ) = CCC(C)[C@H](N)C(=O)O; Thr(3ξ) = CC(O)[C@H](N)C(=O)O"}
{"smiles": "CCC(C)[C@H](NC(C)=O)C(=O)N[C@@H](CCC(=O)O)C(=O)N[C@H](C(=O)N[C@H](C=O)CC(=O)O)C(C)O", "note": "(stereo partly drawn) [(4S)-4-{[(1S)-1-{[(2S)-1-carboxy-3-oxopropan-2-yl]carbamoyl}-2-hydroxypropyl]carbamoyl}-4-[(2S)-2-acetamido-3-methylpentanamido]butanoic acid] (Ac-[Ile(3ξ)]E[Thr(3ξ)]D-aldehyde)", "values": [{"measurement": "IC50", "value": 4.2, "unit": "nM"}]}
